Read-outs that look alike come from different tables or passages of the source. Where a SMILES comes first, the peptide text is derived from it. [ ]: non-standard residue; d: D form. The star is where a group is joined. dPhe(4-Cl) = N[C@H](Cc1ccc(Cl)cc1)C(=O)O; d2Nal = N[C@H](Cc1ccc2ccccc2c1)C(=O)O; Lys(iPr) = CC(C)NCCCC[C@H](N)C(=O)O; d3Pal = N[C@H](Cc1cccnc1)C(=O)O; Nicotinoyl = O=C(c1cccnc1)*
Assays:
[1] = target: T1, rat GnRH receptor (Rattus norvegicus, UniProt P30969); test: Microphysiometry, extracellular acidification rate, GGH3 cells; type: cell-based
T1 sequence (P30969 1-327): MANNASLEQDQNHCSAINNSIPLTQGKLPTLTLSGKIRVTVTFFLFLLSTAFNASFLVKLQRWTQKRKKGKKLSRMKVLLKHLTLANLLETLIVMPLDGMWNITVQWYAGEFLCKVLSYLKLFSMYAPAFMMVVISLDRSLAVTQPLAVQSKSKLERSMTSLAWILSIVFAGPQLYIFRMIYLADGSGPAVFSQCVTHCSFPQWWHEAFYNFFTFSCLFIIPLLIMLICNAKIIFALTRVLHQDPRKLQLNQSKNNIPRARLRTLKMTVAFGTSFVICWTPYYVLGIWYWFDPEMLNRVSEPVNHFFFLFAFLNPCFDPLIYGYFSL
Description: These cells have been extensively characterized previously (Kaiser et al., 1997). These cells were grown in low glucose Dulbecco's modified Eagle's medium (DMEM) containing: 100U/mL penicillin/streptomycin, 0.6 g/L G418 and 10% beat-inactivated fetal bovine serum
This cell line was provided by Dr. Stuart Sealfon, Mount Sinai Medical School New York, N.Y. These cells were grown in DMEM supplemented with 0.2 g/L G418 100 U/ml penicillin/streptomycin and 10% FBS. Both GGH3 and hGnRH-R/293 cells were utilized for both for both total inositol phosphate measurement and for microphysiometry assessment of compound efficacy.
The Cytosensor®Microphysiometer (Molecular Devices, Sunnyvale, Calif.) is a real-time, noninvasive, nonradioactive semiconductor-based system for monitoring the cellular responses to various stimuli. It is based on a pH-sensitive silicon sensor, the light-addressable potentiometric sensor which forms part of a microvolume flow chamber in which cultured cells are immobilized (Pitchford et al., 1995; Parce et al., 1989; Owicki, et al. 1994).
GGH3 cells were seeded in low-buffered minimal essential media (MEM, Sigma) containing 25 mM NaCl and 0.1% BSA at a density of 500,000 cells/capsule onto the polycarbonate membrane (3 μm porosity) of cell capsule cups (Molecular Devices, Sunnyvale, Calif.). Capsule cups were transferred to sensor chambers where cells were held in close apposition to a silicon sensor within a sensor chamber, which measures small changes in pH in the microvolume of the sensor chamber. Low-buffered medium was pumped continuously across the cells at a rate of approximately 100 μl/min from one of two fluid reservoirs. A selection valve determined which reservoir from which fluid was perifused onto the cells.
The Cytosensor®Microphysiometer generates a voltage signal, which is a linear function of pH, every second. In order to measure acidification rates, flow to the sensor chamber containing the cells was periodically interrupted, allowing for excreted acidic metabolites to build up in the extracellular fluid of the cells. In these experiments, cells were maintained at 37° C. on a two minute flow cycle with cells being perfused with media for 80 seconds followed by 40 seconds in which the flow of media was stopped. During this 40 second interval, acidification rates were measured for a 30 sec interval. In this fashion, a single acidification rate was calculated every two min. The Cytosensor®Microphysiometer device contains eight such sensor units, allowing for eight simultaneous experiments to be performed. Each unit was individually programmed utilizing a computer linked to the system.
GGH3 cells were initially equilibrated in the low-buffered MEM media for a period of 30-60 min in which basal acidification rates (measured as μV/sec), in the absence of any stimuli, were monitored. When the basal rate of acidification changed by less than ten percent over a period of twenty minutes, experiments were initiated. Time course experiments were performed to determine the optimal time for agonist exposure prior to acidification rate measurement and the duration of exposure needed to obtain peak acidification responses to various agonists. From these time course experiments, it was determined that cells should be exposed to GnRH peptide agonists at least one minute prior to collection of acidification rate data. Peak acidification rates usually occurred in the first two-minute exposure cycle. In order to capture the peak response to GnRH, cells were exposed to the agonist for a total of four minutes. […] All compounds were tested in a final concentration of 1% DMSO in low-buffered MEM media described above.

[2] = target: T2, bovine GnRH receptor (Bos taurus, UniProt P32236); test: Radioligand binding, 125I-GnRH-A, bovine pituitary membranes
T2 construct: membranes were prepared from bovine pituitary; from tissue; host or cells: bovine pituitary
T2 sequence (P32236 1-328): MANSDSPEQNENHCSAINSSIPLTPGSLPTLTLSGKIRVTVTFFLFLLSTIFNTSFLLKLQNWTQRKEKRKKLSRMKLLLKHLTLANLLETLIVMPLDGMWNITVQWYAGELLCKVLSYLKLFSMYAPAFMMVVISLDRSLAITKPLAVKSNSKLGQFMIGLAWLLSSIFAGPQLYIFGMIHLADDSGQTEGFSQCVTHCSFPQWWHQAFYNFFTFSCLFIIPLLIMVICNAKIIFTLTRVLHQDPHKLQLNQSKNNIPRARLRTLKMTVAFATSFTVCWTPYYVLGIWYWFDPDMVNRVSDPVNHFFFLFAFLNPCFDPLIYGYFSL
Method in brief: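 Bound label captured on 0.1% polyethyleneimine-treated GF/C filters, washed three times with PBS, counted. IC50 derived; identical set-up for every species.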

[3] = target: T3, ILRA (CXCR-1) (Homo sapiens, UniProt P25024); test: Selectivity: ILRA (CXCR-1) / IL8
T3 sequence (P25024 1-350): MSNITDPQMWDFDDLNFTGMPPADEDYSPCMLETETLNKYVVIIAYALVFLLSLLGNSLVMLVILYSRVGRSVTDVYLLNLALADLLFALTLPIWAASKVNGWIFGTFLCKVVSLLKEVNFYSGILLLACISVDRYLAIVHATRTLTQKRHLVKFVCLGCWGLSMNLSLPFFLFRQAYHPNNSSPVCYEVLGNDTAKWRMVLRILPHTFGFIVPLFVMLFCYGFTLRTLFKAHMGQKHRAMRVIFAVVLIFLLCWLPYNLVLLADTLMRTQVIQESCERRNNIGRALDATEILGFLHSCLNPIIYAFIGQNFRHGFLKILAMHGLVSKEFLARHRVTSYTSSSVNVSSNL

[4] = rat, readout (PI or pH) not stated
[5] = means ± SE of at least three experiments performed in duplicate, read-out: Bovine IC50

| SMILES | Kb [1, 4] [nM] | IC50 [2, 5] [nM] | IC50 [3] [nM] | also measured |
| --- | --- | --- | --- | --- |
| Cc1cc2c(cc1Cc1ccc(C(=O)NCC3CCCC(CNc4nccc(NCC5CCCO5)n4)C3)o1)C(C)(C)CCC2(C)C (stereo not shown) [Compound 11] |  | 320 ± 10 | > 10000 |  |
| COc1cc(OC)c(NC(=O)c2ccc(Cc3cc4c(cc3OC)C(C)(C)CCC4(C)C)o2)c(OC)c1 [Compound 169] | 17 |  |  |  |
| COc1cc(OC)c(NC(=O)c2ccc(Cc3cc4c(cc3C)C(C)(C)CCC4(C)C)o2)c(OC)c1 [Compound 134] |  |  |  | Kb ([1]; rat, pH (microphysiometry)): 13 nM |
| Cc1cc2c(cc1Cc1ccc(C(=O)NC[C@H]3CC[C@H](C(=O)O)CC3)o1)C(C)(C)CCC2(C)C [Compound 12] |  | 10400 ± 3000 | > 10000 |  |
| CC(=O)N[C@H](Cc1ccc2ccccc2c1)C(=O)N[C@H](Cc1ccc(Cl)cc1)C(=O)N[C@H](Cc1cccnc1)C(=O)N[C@@H](CO)C(=O)N[C@@H](CCCCNC(=O)c1cccnc1)C(=O)N[C@H](CCCCNC(=O)c1cccnc1)C(=O)N[C@@H](CC(C)C)C(=O)N[C@@H](CCCCNC(C)C)C(=O)N1CCC[C@H]1C(=O)N[C@H](C)C(N)=O [Antide, reference compound] (Ac-[d2Nal][dPhe(4-Cl)][d3Pal]SK(Nicotinoyl)[dK](Nicotinoyl)L[Lys(iPr)]P[dA]-NH2) |  | 0.15 ± 0.02 |  |  |
| COc1cccc(OC)c1NC(=O)c1ccc(Cc2cc3c(cc2C)C(C)(C)CCC3(C)C)o1 [Compound 20] | 9 |  | > 10000 | IC50 ([2]; read-out: bGnRH IC50): 130 nM; Ki [3]: > 10000 nM |
| Cc1cc2c(cc1Cc1ccc(C(=O)NCc3nc4ccccc4[nH]3)o1)C(C)(C)CCC2(C)C [Compound 48] |  |  | > 10000 | IC50 ([2]; read-out: bGnRH IC50): 490 nM |
| Cc1cnc(CNC(=O)c2ccc(Cc3cc4c(cc3C)C(C)(C)CCC4(C)C)o2)cn1 [Compound 13] |  | 530 ± 100 | > 10000 |  |
| Cc1cc2c(cc1Cc1ccc(C(=O)NC[C@H]3CC[C@H](CNC(=N)N)CC3)o1)C(C)(C)CCC2(C)C [Compound 10] |  | 1500 ± 480 | 6400 |  |
| Cc1cc2c(cc1Cc1ccc(C(=O)NCc3cccc(CNc4ccnc(NC[C@@H]5CCCO5)n4)c3)o1)C(C)(C)CCC2(C)C [Compound 136] |  |  |  | effect on GnRH dose-response curves, extracellular acidification rate ([1]; GGH3 cells, one experiment): rightward shift in the dose-response curves to GnRH without decreasing the maximum response to GnRH; Kb ([1]; rat, pH (microphysiometry)): 8 nM |

Continued, in another order:

| Kb [1, 4] [nM] | SMILES | IC50 [2, 5] [nM] | IC50 [3] [nM] | also measured |
| --- | --- | --- | --- | --- |
| 9 | COc1cc(OC)c(NC(=O)c2ccc(Cc3cc4c(cc3C)C(C)(C)CCC4(C)C)o2)c(OC)c1C#N [Compound 177] |  |  |  |
| 11 | COc1cc(OC)c(NC(=O)c2ccc(Cc3cc4c(cc3C)CCCC4(C)C)o2)c(OC)c1 [Compound 183] |  |  |  |
| 0.9 | COc1cc(OC)c(NC(=O)c2ccc(Cc3cc(C(C)(C)C)ccc3C)o2)c(OC)c1 [Compound 200] |  |  |  |
| 8 | Cc1cc2c(cc1Cc1ccc(C(=O)NCc3cccc(CNc4nccc(NCC5CCCO5)n4)c3)o1)C(C)(C)CCC2(C)C (stereo not shown) [Compound 70] |  |  | IC50 ([2]; read-out: bGnRH IC50): 43 nM; GnRH functional (rat) [1, 4]: Antag- onist (rat) |

Reference: patent US7101878B1 (Agouron Pharmaceuticals, Inc., priority 1998, dated 2006)
